A short description of the test: Phosphate-binding assay in phosphate-binding solution (PBS) simulating small intestinal fluid (SIF). Here is the method:
Exemplary stock solutions suitable for phosphate-binding assays include the following: phosphate-binding solution (“PBS”) containing 10 mM KH2PO4, 30 mM Na2CO3, 80 mM NaCl, as described in Rosenbaum et al. Nephrol. Dial. Transplant. 12:961-964 (1997); acetate buffer (“AB”) solution containing 0.1N acetic acid, 0.025N sodium acetate, as described in Lowry & Lopez J. Biol. Chem. 162:421-428 (1946); ammonium molybdate (“AM”) solution containing 1% ammonium molybdate in 0.05N H2SO4, as described in Lowry & Lopez; ascorbic acid (“AA”) solution containing 1% ascorbic acid in H2O, as described in Lowry & Lopez.
In general, the phosphate-binding assay was conducted in 12×75 mm glass tubes. 4.0 mL PBS (which is a solution simulating SIF) and 20 mg putative phosphate binder were added to a glass tube and then mixed for 1 h at room temperature. 0.1 mL supernatant was pipetted from this tube to a new test tube. 3.0 mL AB, 0.3 mL AA and 0.3 mL AM solutions were added and O.D. were measured at 700 nm after 10 minutes.
The phosphate binding capacity was calculated as follows (mcg stands for micrograms): ((O.D. of sample×95)/O.D. of standard)×40=mcgPO4 left in solution ((3800−mcgPO4 left)×50)/1000=mgPO4 bound per gram of phosphate binder

Setting [1] is: Table 3, 20 mg binder in 4.0 mL PBS, 1 h, room temperature.
Setting [2] is: Table 4, calculated from Table 3 and % Mg (or % Ca).
The mark [3] stands for this setting: Table 2, 20 mg binder in 4.0 mL PBS, 1 h, room temperature.

As for Mg stearate, the PO4 binding under setting [1] was 15 mg/g.

As to `O=C([O-])CCC(=O)[O-].[Mg+2]` [Mg succinate], the PO4 binding under setting [1] is recorded as 18 mg/g.

Under setting [1], magnesium betainate [Mg betainate] returned a PO4 binding of 147 mg/g. In addition, the “mg PO4 bound per g Mg or Ca in compound” value reads like this: under setting [2], 1547 mg PO4 per g Mg or Ca; (Table 5, additional results) 1484 mg PO4 per g Mg (or Ca). Also, the “mg PO4 bound per g compound” value is 147 mg PO4 per g compound (Table 4, taken from Table 3) and 141 mg PO4 per g compound (Table 5, additional results).

The molecule `O=S(=O)([O-])[O-].[Mg+2]` [Mg sulfate] displayed a PO4 binding under setting [1] of 9 mg/g.

Under setting [1], `O=C([O-])C(O)C(O)C(=O)[O-].[Mg+2]` (stereo not shown) [Mg tartrate, magnesium tartrate] gave a PO4 binding of 28 mg/g.

Turning to `O=C([O-])[O-].[Mg+2]` [MgCO3, magnesium carbonate], the PO4 binding is recorded as 19.0 mg/g under setting [3] and 22 mg/g under setting [1].

With `O=C([O-])c1cccnc1.O=C([O-])c1cccnc1.[Mg+2]` [Mg nicotinate], under setting [1], the PO4 binding was 4 mg/g.

`O=C([O-])/C=C/C(=O)[O-].[Mg+2]` [Mg fumarate] displayed a PO4 binding under setting [1] of 4 mg/g.

In turn, magnesium arginate [Mg arginate] came in with a PO4 binding under setting [1] of 121 mg/g. Moreover, the “mg PO4 bound per g Mg or Ca in compound” value is 1862 mg PO4 per g Mg or Ca under setting [2] and 1815 mg PO4 per g Mg (or Ca) (Table 5, additional results). For the same molecule, the “mg PO4 bound per g compound” value is on record as 121 mg PO4 per g compound (Table 4, taken from Table 3) and 118 mg PO4 per g compound (Table 5, additional results).

For the molecule `O=C([O-])[O-].[Ca+2]` [CaCO3, calcium carbonate, reference compound], the PO4 binding under setting [3] was 10.9 mg/g.

Turning to `O=C([O-])CC(O)(CC(=O)[O-])C(=O)[O-].O=C([O-])CC(O)(CC(=O)[O-])C(=O)[O-].[Mg+2].[Mg+2].[Mg+2]` [Mg citrate], the PO4 binding runs as follows: under setting [3], 16.3 mg/g; under setting [1], 15 mg/g.

Consider `O=C([O-])c1cc(=O)[nH]c(=O)[nH]1.O=C([O-])c1cc(=O)[nH]c(=O)[nH]1.[Mg+2]` [Mg orotate], for which, under setting [1], the PO4 binding is on record as 20 mg/g.

Take `CCC(=O)[O-].CCC(=O)[O-].[Mg+2]` [Mg propionate, magnesium propionate]: the PO4 binding under setting [1] was 59 mg/g.

Under setting [1], `N[C@@H](CC(=O)[O-])C(=O)[O-].[Mg+2]` [Mg aspartate, magnesium aspartate] yielded a PO4 binding of 50 mg/g.

`NCC(=O)[O-].NCC(=O)[O-].[Mg+2]` [Mg glycinate, magnesium glycinate] had a PO4 binding under setting [1] of 176 mg/g. Besides, the “mg PO4 bound per g Mg or Ca in compound” value under setting [2] is 1248 mg PO4 per g Mg or Ca and the “mg PO4 bound per g Mg or Ca in compound” value (Table 5, additional results) was 1255 mg PO4 per g Mg (or Ca). Besides, the “mg PO4 bound per g compound” value is 176 mg PO4 per g compound (Table 4, taken from Table 3) and 177 mg PO4 per g compound (Table 5, additional results).

`CC(O)C(=O)[O-].CC(O)C(=O)[O-].[Mg+2]` (stereo not shown) [Mg lactate] came in with a PO4 binding under setting [1] of 15 mg/g.

Molecule magnesium lysinate [Mg lysinate] came in with a PO4 binding under setting [1] of 150 mg/g. In addition, the “mg PO4 bound per g Mg or Ca in compound” value is, setting by setting: under setting [2], 1948 mg PO4 per g Mg or Ca; (Table 5, additional results) 1792 mg PO4 per g Mg (or Ca). In addition, the “mg PO4 bound per g compound” value is listed as 150 mg PO4 per g compound (Table 4, taken from Table 3) and 138 mg PO4 per g compound (Table 5, additional results). In addition, for the setting “from Table 4”, the “phosphate bound by 1 gram of Mg in the salt relative to 1 gram of calcium in PhosLo (Ca acetate)” value is listed as “almost three times as much”.

Under setting [1], `O=C1O[C@H]([C@@H](O)CO)C(O)=C1[O-].O=C1O[C@H]([C@@H](O)CO)C(O)=C1[O-].[Mg+2]` [Mg ascorbate] gave a PO4 binding of 4 mg/g.

Regarding `O=C([O-])CCCCC(=O)[O-].[Mg+2]` [Mg adipate], the PO4 binding under setting [1] is reported as 6 mg/g.

`[Cl-].[Cl-].[Mg+2]` [Mg chloride, magnesium chloride] came in with a PO4 binding under setting [1] of 4 mg/g.

In turn, `O=C[O-].O=C[O-].[Mg+2]` [Mg formate] had a PO4 binding under setting [1] of 6 mg/g.

On to `O.O.O.O.O.O.O.O=S(=O)([O-])[O-].[Mg+2]` [MgSO4•7H2O], for which the PO4 binding under setting [3] is 19.0 mg/g.

magnesium carnitinate [Mg carnitinate] gave a PO4 binding under setting [1] of 169 mg/g.

Under setting [1], “magnesium aminobutyrate [Mg aminobutyrate]” had a PO4 binding of 85 mg/g. Also, the “mg PO4 bound per g compound” value (Table 5, additional results) is 76 mg PO4 per g compound.

`CC(=O)[O-].CC(=O)[O-].[Mg+2]` [Mg acetate]: under setting [1], the PO4 binding is listed as 4 mg/g.

In the case of `O=C([O-])/C=C\C(=O)[O-].[Mg+2]` [Mg maleate], under setting [1], the PO4 binding is on record as 15 mg/g.

As for `O=C([O-])CC(O)C(=O)[O-].[Mg+2]` (stereo not shown) [Mg malate], under “Table 5, additional results”, the “mg PO4 bound per g compound” value is on record as 29 mg PO4 per g compound.

Regarding `[O]=[Mg]` [MgO, magnesium oxide], the PO4 binding under setting [3] is reported as 184.0 mg/g and the PO4 binding result under setting [1] was “≧190 mg/g”. The “mg PO4 bound per g Mg or Ca in compound” value by setting is: under setting [2], 315 mg PO4 per g Mg or Ca; (Table 5, additional results) 310 mg PO4 per g Mg (or Ca). The “mg PO4 bound per g compound” value by setting is: (Table 4, taken from Table 3) 190 mg PO4 per g compound; (Table 5, additional results) 187 mg PO4 per g compound.

With `[Mg+2].[OH-].[OH-]` [Mg(OH)2, magnesium hydroxide], the PO4 binding is, setting by setting: under setting [3], 176.2 mg/g; under setting [1], 182 mg/g; (Table 6, without acid treatment) 179.0 mg/g. Further, the “mg PO4 bound per g Mg or Ca in compound” value under setting [2] is 436 mg PO4 per g Mg or Ca. For the same molecule, the “mg PO4 bound per g compound” value (Table 4, taken from Table 3) is listed as 182 mg PO4 per g compound.

The values above are taken from patent US9889157B2, “Phosphate-binding magnesium salts and uses thereof” (Cypress Pharmaceuticals, Inc., priority 2009, dated 2018).
